# Test results from patent US10039742B2, “Sn-2-monoacylglycerols and lipid malabsorption” (Nestec S.A., priority 2010, dated 2018).
# Experiment: Lipid maldigestion/malabsorption animal model obtained with Orlistat: EPA incorporation in red blood cells, plasma lipids and tissues
# Format: in vivo, rats
# Conditions: comparison between the groups receiving fish oil with or without Orlistat; day 7
# Description: Treatments: Control rats fed fish oil with or without Orlistat and rats fed NAG derivatives described in FIGS. 1A and 1B. Values are means±SEM (n=6).
# The inventors tested their concept in a lipid malabsorption animal model. The lipid maldigestion/malabsorption conditions were obtained using Orlistat®, a well known pancreatic and gastric lipases inhibitor. Animals were fed with long-chain polyunsaturated fatty acid (LC-PUFA) supplements containing mainly eicosapentaenoic (EPA) acid. Fish oil was used as a source of triacylglycerols and different EPA glycerides, for example those of FIGS. 1A and 1B, were evaluated. At different time intervals the fatty acid profile of red blood cells and plasma lipids was assessed. At the end of the experiment, fatty acid profiles of different tissues were determined. […]
# The concept was tested in a lipid maldigestion or malabsorption animal model. […] Fish oil was used as a source of triacylglycerols and the different EPA glycerides provided in FIGS. 1A and 1B were evaluated. […] At the end of the experiment, fatty acid profiles of different tissues were determined.
# The main objective was to follow the level of EPA in red blood cell and plasma lipids. The main comparison evaluated was the difference in EPA level between groups receiving EPA derivatives (FIGS. 1A and 1B) in combination with Orlistat and the […] control group (fish oil+Orlistat).
smiles,measurement,value
CCCCCCCCCCC[C@@H](C[C@@H]1OC(=O)[C@H]1CCCCCC)OC(=O)[C@H](CC(C)C)NC=O [Orlistat],EPA incorporation in red blood cells,decrease EPA incorporation in red blood cells
